US11040981B2, “Pyrrolotriazine compounds and methods of inhibiting TAM kinases” (Syros Pharmaceuticals, Inc., priority 2017, dated 2021)

How the values were obtained:
FLT3 = molecular target: T1, FLT3 (Homo sapiens, UniProt P36888); test: TR-FRET kinase activity assay, FLT3; format: biochemical; details: ATP at Km, 60 minutes
T1 sequence (P36888 27-993): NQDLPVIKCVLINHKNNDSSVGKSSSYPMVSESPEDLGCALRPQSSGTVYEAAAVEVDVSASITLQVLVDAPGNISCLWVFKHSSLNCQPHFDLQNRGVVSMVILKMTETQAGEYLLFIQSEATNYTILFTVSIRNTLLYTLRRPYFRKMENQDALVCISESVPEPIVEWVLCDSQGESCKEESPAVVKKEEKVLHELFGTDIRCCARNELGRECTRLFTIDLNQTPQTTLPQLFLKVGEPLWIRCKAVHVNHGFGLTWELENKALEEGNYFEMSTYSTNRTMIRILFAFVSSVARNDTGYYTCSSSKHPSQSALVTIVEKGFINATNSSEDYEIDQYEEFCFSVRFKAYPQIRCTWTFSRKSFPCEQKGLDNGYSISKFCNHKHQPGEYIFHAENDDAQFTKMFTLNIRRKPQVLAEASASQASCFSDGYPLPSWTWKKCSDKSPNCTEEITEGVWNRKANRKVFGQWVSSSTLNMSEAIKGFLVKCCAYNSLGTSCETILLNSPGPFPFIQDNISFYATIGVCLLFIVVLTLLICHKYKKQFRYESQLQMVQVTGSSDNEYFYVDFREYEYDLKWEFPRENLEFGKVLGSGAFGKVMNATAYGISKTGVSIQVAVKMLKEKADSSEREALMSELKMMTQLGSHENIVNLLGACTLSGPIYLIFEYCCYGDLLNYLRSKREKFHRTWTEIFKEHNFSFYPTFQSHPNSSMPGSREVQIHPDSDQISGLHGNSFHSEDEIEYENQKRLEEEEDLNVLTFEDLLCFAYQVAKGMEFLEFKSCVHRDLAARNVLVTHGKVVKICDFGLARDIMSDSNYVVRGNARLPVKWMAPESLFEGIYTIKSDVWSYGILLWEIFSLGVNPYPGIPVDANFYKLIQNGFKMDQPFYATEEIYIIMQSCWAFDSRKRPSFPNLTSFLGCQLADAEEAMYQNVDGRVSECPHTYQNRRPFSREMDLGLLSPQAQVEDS
In short: (§1)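 Compounds were tested against each kinase with ATP set at its own Km and a labelled tyrosine peptide substrate. Following one hour at room temperature in buffer containing 10 mM MgCl2 and 1 mM DTT, phosphorylated product was detected by Europium antibody TR-FRET after EDTA quench, and IC50 values were calculated.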

TYRO3 = molecular target: T2, TYRO3 (Homo sapiens, UniProt Q06418); test: TR-FRET kinase activity assay, TYRO3; format: biochemical; details: ATP at Km, 60 minutes
T2 sequence (Q06418 41-890): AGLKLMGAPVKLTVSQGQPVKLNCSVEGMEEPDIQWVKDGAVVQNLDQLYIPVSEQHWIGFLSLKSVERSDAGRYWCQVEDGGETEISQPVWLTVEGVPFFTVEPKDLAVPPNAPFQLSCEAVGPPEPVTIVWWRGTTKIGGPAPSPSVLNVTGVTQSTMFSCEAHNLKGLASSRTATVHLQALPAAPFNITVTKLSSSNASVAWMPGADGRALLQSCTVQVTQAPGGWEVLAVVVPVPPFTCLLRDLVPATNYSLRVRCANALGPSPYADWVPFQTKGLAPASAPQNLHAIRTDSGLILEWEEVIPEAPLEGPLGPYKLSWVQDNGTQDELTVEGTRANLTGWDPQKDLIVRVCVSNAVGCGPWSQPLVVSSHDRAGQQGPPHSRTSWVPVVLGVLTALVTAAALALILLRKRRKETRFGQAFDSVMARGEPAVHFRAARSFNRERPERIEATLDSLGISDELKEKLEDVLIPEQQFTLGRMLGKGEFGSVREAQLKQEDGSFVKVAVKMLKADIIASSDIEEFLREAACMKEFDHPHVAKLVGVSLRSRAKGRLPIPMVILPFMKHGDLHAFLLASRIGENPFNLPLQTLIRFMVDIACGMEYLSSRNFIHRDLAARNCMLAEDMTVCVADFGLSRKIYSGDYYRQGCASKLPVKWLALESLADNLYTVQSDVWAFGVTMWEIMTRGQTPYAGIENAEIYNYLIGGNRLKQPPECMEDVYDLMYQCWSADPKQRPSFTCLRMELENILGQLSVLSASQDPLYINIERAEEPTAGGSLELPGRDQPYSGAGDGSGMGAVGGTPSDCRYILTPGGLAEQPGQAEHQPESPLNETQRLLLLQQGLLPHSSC
In short: as §1

Compound	IC50 (FLT3) [nM]	IC50 (TYRO3) [nM]
COC[C@H](C)Nc1ncc2c(-c3cnn(C4COC4)c3)cc(-c3cccc(O)c3)n2n1 [Compound 511]	100 to 1000	≤ 100
COC[C@H](C)Nc1ncc2c(-c3cnn(C4COC4)c3)cc([C@@H]3CC[C@@H](O)C(C)(C)C3)n2n1 [Compound 570]	100 to 1000	≤ 100
COC[C@H](C)Nc1ncc2c(-c3cnn(C4COC4)c3)cc(C3CCC(=O)NC3)n2n1 (stereo partly shown) [Compound 526]	1000 to 10000	≤ 100
COC[C@H](C)Nc1ncc2c(-c3ccnc([S@@](C)(=N)=O)c3)cc([C@H]3CC[C@H](O)CC3)n2n1 [Compound 574]	1000 to 10000	≤ 100
COC[C@H](C)Nc1ncc2c(-c3cnn(C4COC4)c3)cc([C@@H]3CC[C@H](O)[C@H](C)C3)n2n1 [Compound 587]	100 to 1000	≤ 100
C[C@H](Nc1ncc2c(-c3cnn(C4COC4)c3)cc([C@H]3CC[C@H](O)CC3)n2n1)C(F)(F)F [Compound 510]	1000 to 10000	≤ 100
C[C@@H](CC(F)(F)F)Nc1ncc2c(-c3cncc([S@](C)(=N)=O)c3)cc([C@H]3CC[C@H](O)CC3)n2n1 [Compound 582]	1000 to 10000	≤ 100
CCN(C(=O)N1CCN(c2cc(-c3cc([C@H]4CC[C@H](O)CC4)n4nc(N[C@@H](C)COC)ncc34)ccn2)CC1)C(C)C [Compound 514]	1000 to 10000	≤ 100
COC[C@H](C)Nc1ncc2c([C@H]3CC[C@@H](C(=O)N4CCC(F)(F)CC4)CC3)cc([C@H]3CC[C@H](O)CC3)n2n1 [Compound 577]	1000 to 10000	≤ 100
COC[C@H](C)Nc1ncc2c(-c3cnn(C4COC4)c3)cc([C@@H]3CC[C@H](O)[C@@H](C)C3)n2n1 [Compound 588]	100 to 1000	≤ 100
C[C@H](Nc1ncc2c(-c3cnn(C(C)(C)C(=O)N4CCOCC4)c3)cc([C@H]3CC[C@H](O)CC3)n2n1)C(F)(F)F [Compound 537]	1000 to 10000	≤ 100
COC[C@H](C)Nc1ncc2c(-c3cnn(C4COC4)c3)cc(C3CCSCC3)n2n1 [Compound 522]	100 to 1000	≤ 100
COC[C@H](C)Nc1ncc2c(-c3cnn(C(C)(C)C(=O)N4CCOCC4)c3)cc([C@H]3CC[C@@](C)(O)CC3)n2n1 [Compound 561]	100 to 1000	≤ 100
COC[C@H](C)Nc1ncc2c(-c3ccnc(N4CCOCC4)c3)cc([C@H]3CC[C@@](C)(O)CC3)n2n1 [Compound 548]	100 to 1000	≤ 100
COCC(C)Nc1ncc2c(-c3ccnc(N4CCOC(C(C)(C)O)C4)c3)cc(C3CCC(O)CC3)n2n1 (stereo not shown) [Compound 559]	100 to 1000	≤ 100
COC[C@H](C)Nc1ncc2c(-c3ccnc(C(F)(F)F)c3)cc([C@H]3CC[C@H](O)CC3)n2n1 [Compound 584]	1000 to 10000	≤ 100
COC[C@H](C)Nc1ncc2c(-c3cnn(C(C)(C)C(=O)N4CCOC(C(C)(C)O)C4)c3)cc([C@H]3CC[C@H](O)CC3)n2n1 (stereo partly shown) [Compound 556]	1000 to 10000	≤ 100
COC[C@H](C)Nc1ncc2c(-c3cnn(C4COC4)c3)cc([C@@H]3CC[C@@H](O)[C@H](C)C3)n2n1 [Compound 589]	100 to 1000	≤ 100
CC[C@H](C)Nc1ncc2c(C3CCNCC3)cc([C@H]3CC[C@H](O)CC3)n2n1 [Compound 135, (trans)-4-(2-((S)-sec-butylamino)-5-(piperidin-4-yl)pyrrolo[2,1-f][1,2,4]triazin-7-yl)cyclohexanol]	100 to 1000	≤ 100

Compound	IC50 (FLT3) [nM]	IC50 (TYRO3) [nM]
CC(Nc1ncc2c(-c3cnn(C4COC4)c3)cc(C3CCC(O)CC3)n2n1)c1cccnc1 (racemic) [Compound 536]	1000 to 10000	≤ 100
COCC(C)Nc1ncc2c(-c3ccc4[nH]ccc4c3)cc(C3CCC(O)CC3)n2n1 (stereo not shown) [Compound 539]	1000 to 10000	≤ 100
COC[C@H](C)Nc1ncc2c(-c3ccc([S@@](C)(=N)=O)nc3)cc([C@H]3CC[C@H](O)CC3)n2n1 [Compound 533]	1000 to 10000	≤ 100
C[C@@H](Nc1ncc2c(-c3cnn(C4COC4)c3)cc([C@H]3CC[C@H](O)CC3)n2n1)C(F)(F)F [Compound 527]	100 to 1000	≤ 100
COC[C@H](C)Nc1ncc2c(-c3ccnc(N4CCOCC4)c3)cc([C@H]3CC[C@@H](O)CC3)n2n1 [Compound 546]	100 to 1000	≤ 100
COC[C@H](C)Nc1ncc2c(-c3ccc(CN4CCOCC4)cc3)cc([C@H]3CC[C@H](O)CC3)n2n1 [Compound 140]	100 to 1000	≤ 100
C[C@@H](CC(F)(F)F)Nc1ncc2c(-c3ccnc([S@](C)(=N)=O)c3)cc([C@H]3CC[C@H](O)CC3)n2n1 [Compound 580]	≤ 100	≤ 100
CC(COc1ccccc1)Nc1ncc2c(-c3cnn(C4COC4)c3)cc([C@H]3CC[C@H](O)CC3)n2n1 (mixture of isomers) [Compound 528]	100 to 1000	≤ 100
COCC(C)Nc1ncc2c(-c3ccc4ncoc4c3)cc(C3CCC(O)CC3)n2n1 (stereo not shown) [Compound 552]	100 to 1000	≤ 100
COC[C@H](C)Nc1ncc2c(-c3cnn(C4COC4)c3)cc(C3CCC(F)(F)CC3)n2n1 [Compound 515]	100 to 1000	≤ 100
C[C@@H](COC(F)F)Nc1ncc2c(-c3cnn(C(C)(C)C(=O)N4CCN(C)CC4)c3)cc([C@H]3CC[C@H](O)CC3)n2n1 [Compound 593]	100 to 1000	≤ 100
CCCCC[C@H](C)Nc1ncc2c([C@H]3CC[C@@H](C(=O)N4CCS(=O)(=O)CC4)CC3)cc([C@H]3CC[C@H](O)CC3)n2n1 [Compound 137]	100 to 1000	≤ 100
C[C@@H](CC(F)(F)F)Nc1ncc2c(-c3ccc([S@@](C)(=N)=O)nc3)cc([C@H]3CC[C@H](O)CC3)n2n1 [Compound 541]	≤ 100	≤ 100
COC[C@H](C)Nc1ncc2c(-c3ccnc(N4CCO[C@H](C(C)(C)O)C4)c3)cc([C@H]3CC[C@H](O)CC3)n2n1 [Compound 558]	100 to 1000	≤ 100
Cc1nnc(C(C)(C)n2cc(-c3cc([C@H]4CC[C@H](O)CC4)n4nc(N[C@@H](C)COC(F)F)ncc34)cn2)o1 [Compound 517]	1000 to 10000	≤ 100
COC[C@H](C)Nc1ncc2c([C@H]3CC[C@@H](C(=O)N4CC5(COC5)C4)CC3)cc([C@H]3CC[C@H](O)CC3)n2n1 [Compound 579]	1000 to 10000	≤ 100
COC[C@H](C)Nc1ncc2c(-c3cnn(C4COC4)c3)cc([C@@H]3CC[C@H](O)C(C)(C)C3)n2n1 [Compound 571]	100 to 1000	≤ 100
COC[C@H](C)Nc1ncc2c(-c3ccnc(N4CCOC(C(C)(C)O)C4)c3)cc([C@H]3CC[C@H](O)CC3)n2n1 (stereo partly shown) [Compound 534]	100 to 1000	≤ 100
CC[C@H](C)Nc1ncc2c(C3CCN(c4nccc(C)n4)CC3)cc([C@H]3CC[C@H](O)CC3)n2n1 [Compound 136, (trans)-4-(2-((S)-sec-butylamino)-5-(1-(4-methylpyrimidin-2-yl)piperidin-4-yl)pyrrolo[2,1-f][1,2,4]triazin-7-yl)cyclohexanol]	1000 to 10000	100 to 1000
